In patent US12275712B2, “Triterpene derivatives as HIV inhibitors” (HETERO LABS LIMITED, priority 2019, dated 2025) one finds IC50 data, which are given here for nine compounds.

The structures appear in SMILES notation.

Assay [1] relates to pNL4-3 WT. Briefly: Antiviral activity against pNL4-3 WT strain in MT4 cells (p24 estimation). Type of assay: cell-based, HIV-1. To be noted: Human immunodeficiency virus 1, MT4, 96 h, read-out: pNL4-3 WT IC50. On the procedure:
(§1) MT4 cells were Transfected with HIV-1 Plasmid (pNL4-3-WT & V7A) (Cells were incubating with required number of TCID50 of HIV-1 for 1.5 h at 37° C.). After infection, the infected cells were plated at the concentration of 3×10^4 cells per well in 96 well plate. Test compound was added to the test plate in defined format with the final concentration of DMSO is not more than 1%. Incubation was carried out in CO2 incubator for 4 days for viral infection. At the end of incubation period an aliquot from each well was taken for p24 estimation. p24 estimation was carried out using Advance biosciences kit as per the procedure detailed by supplier.

Assay [2] deals with pNL4-3 V7A. Briefly: Antiviral activity against pNL4-3 V7A strain in MT4 cells (p24 estimation). To be noted: Human immunodeficiency virus 1, MT4, 96 h, read-out: pNL4-3 V7A IC50. Type of assay: cell-based, HIV-1. On the procedure: as §1
Assay [3] has as its system HIV-1 strain 92HT599. Briefly: Antiviral activity against HIV-1 strain 92HT599 in MT2 cells (p24 estimation). The class given is cell-based. To be noted: Human immunodeficiency virus 1; HIV-1 strain 92HT599, MT2 cells, ~96 hours, p24; read-out: IC50. On the procedure:
MT2 cells were infected with HIV-1 strain 92HT599 (10 TCID 50/30000 cells). The infected cells were plated at the concentration of ˜30,000 cells per well in 96 well plate. Test compound was added to the micro plate in defined format with the final concentration of DMSO (vehicle) is not more than 1%. Incubation was carried out in CO2 incubator for ˜96 hours for viral infection. At the end of incubation period an aliquot from each well was taken for p24 estimation. The quantitation of p24 is an index for antiviral activity of the compound. Percent inhibition was calculated with reference to control values (vehicle controls). p24 estimation was carried out using Advance biosciences kit as per the procedure detailed by supplier.
The IC50 (nM) values are set forth in below Table-1.

As for `CC(C)[C@H](CN[C@]12CC[C@@H](C3(C)CC3)[C@@H]1[C@H]1CC[C@@H]3[C@@]4(C)CC[C@H](OC(=O)[C@H]5C[C@@H](C(=O)O)C5(C)C)C(C)(C)[C@@H]4CC[C@@]3(C)[C@]1(C)CC2)N1CCS(=O)(=O)CC1` [Example 3, (1R,3S)-3-((((1R,3aS,5aR,5bR,7aR,9S,11aR,11bR,13aR,13bR)-3a-(((R)-2-(1,1-dioxidothiomorpholino)-3-methylbutyl)amino)-5a,5b,8,8,11a-pentamethyl-1-(1-methylcyclopropyl)icosahydro-1H-cyclopenta[a]chrysen-9-yl)oxy)carbonyl)-2,2-dimethyl cyclobutane-1-carboxylic acid], the IC50 in assay [1] is over 50 nM; in assay [2] it was over 100 nM; in assay [3], over 20 nM.

As to `C[C@H](F)[C@@H](CN[C@]12CC[C@@H](C3(C)CC3)[C@@H]1[C@H]1CC[C@@H]3[C@@]4(C)CC[C@H](OC(=O)[C@H]5C[C@@H](C(=O)O)C5(C)C)C(C)(C)[C@@H]4CC[C@@]3(C)[C@]1(C)CC2)N1CCS(=O)(=O)CC1` [Example 12, (1R,3S)-3-((((1R,3aS,5aR,5bR,7aR,9S,11aR,11bR,13aR,13bR)-3a-(((2R,3 S)-2-(1,1-dioxidothiomorpholino)-3-fluorobutyl)amino)-5a,5b,8,8,11a-pentamethyl-1-(1-methylcyclopropyl)icosahydro-1H-cyclopentachrysen-9-yl)oxy)carbonyl)-2,2-di methylcyclobutane-1-carboxylic acid], the IC50 was 10 to 50 nM in assay [1], over 100 nM in assay [2] and over 20 nM in assay [3].

Regarding `C[C@@H](O)[C@@H](CN[C@]12CC[C@@H](C3(C)CC3)[C@@H]1[C@H]1CC[C@@H]3[C@@]4(C)CC[C@H](OC(=O)[C@H]5C[C@@H](C(=O)O)C5(C)C)C(C)(C)[C@@H]4CC[C@@]3(C)[C@]1(C)CC2)N1CCS(=O)(=O)CC1` [Example 7, (1R,3S)-3-((((1R,3aS,5aR,5bR,7aR,9S,11aR,11bR,13aR,13bR)-3a-(((2R,3R)-2-(1,1-dioxidothiomorpholino)-3-hydroxybutyl)amino)-5a,5b,8,8,11a-pentamethyl-1-(1-methylcyclopropyl)icosahydro-1H-cyclopentachrysen-9-yl)oxy)carbonyl)-2,2-dimethylcyclobutane-1-carboxylic acid], the half-inhibitory concentration (IC50) was under 10 nM in assay [1], 1 to 50 nM in assay [2] and under 10 nM in assay [3].

`COCCOCC(=O)O[C@H](C)[C@@H](CN[C@]12CC[C@@H](C3(C)CC3)[C@@H]1[C@H]1CC[C@@H]3[C@@]4(C)CC[C@H](OC(=O)[C@H]5C[C@@H](C(=O)O)C5(C)C)C(C)(C)[C@@H]4CC[C@@]3(C)[C@]1(C)CC2)N1CCS(=O)(=O)CC1` [Example 17, (1R,3S)-3-((((1R,3aS,5aR,5bR,7aR,9S,11aR,11bR,13aR,13bR)-3a-(((2R,3R)-2-(1,1-dioxidothiomorpholino)-3-(2-(2-methoxyethoxy)acetoxy)butyl)amino)-5a,5b,8,8,11a-pentamethyl-1-(1-methylcyclopropyl)icosahydro-1H-cyclopentachrysen-9-yl)oxy)carbonyl)-2,2-dimethylcyclobutane-1-carboxylic acid]: the results for the IC50 in assay [1], in assay [2] and in assay [3] were under 10 nM, 1 to 50 nM and under 10 nM, respectively.

For `CC(C)S(=O)(=O)N1CCN([C@H](CN[C@]23CC[C@@H](C4(C)CC4)[C@@H]2[C@H]2CC[C@@H]4[C@@]5(C)CC[C@H](OC(=O)[C@H]6C[C@@H](C(=O)O)C6(C)C)C(C)(C)[C@@H]5CC[C@@]4(C)[C@]2(C)CC3)[C@@H](C)O)CC1` [Example 14, (1R,3S)-3-((((1R,3aS,5aR,5bR,7aR,9S,11aR,11bR,13aR,13bR)-3a-(((2R,3R)-3-hydroxy-2-(4-(isopropylsulfonyl)piperazin-1-yl)butyl)amino)-5a,5b,8,8,11a-pentamethyl-1-(1-methylcyclopropyl)icosahydro-1H-cyclopenta[a]chrysen-9-yl)oxy)carbonyl)-2,2-dimethylcyclobutane-1-carboxylic acid], the IC50 in assay [1] was under 10 nM; in assay [2], 1 to 50 nM; in assay [3], under 10 nM.

As for `CC1([C@@H]2CC[C@]3(NC[C@H](CF)N4CCS(=O)(=O)CC4)CC[C@]4(C)[C@H](CC[C@@H]5[C@@]6(C)CC[C@H](OC(=O)[C@H]7C[C@@H](C(=O)O)C7(C)C)C(C)(C)[C@@H]6CC[C@]54C)[C@@H]23)CC1` [Example 10, (1R,3S)-3-((((1R,3aS,5aR,5bR,7aR,9S,11aR,11bR,13aR,13bR)-3a-(((R)-2-(1,1-dioxidothiomorpholino)-3-fluoropropyl)amino)-5a,5b,8,8,11a-pentamethyl-1-(1-methylcyclopropyl)icosahydro-1H-cyclopenta[a]chrysen-9-yl)oxy)carbonyl)-2,2-dimethyl cyclobutane-1-carboxylic acid], the values for the half-inhibitory concentration (IC50) in assay [1], in assay [2] and in assay [3] were under 10 nM, 1 to 50 nM and under 10 nM, respectively.

In the case of `CC(C)[C@@H](CN[C@]12CC[C@@H](C3(C)CC3)[C@@H]1[C@H]1CC[C@@H]3[C@@]4(C)CC[C@H](OC(=O)[C@H]5C[C@@H](C(=O)O)C5(C)C)C(C)(C)[C@@H]4CC[C@@]3(C)[C@]1(C)CC2)N1CCS(=O)(=O)CC1` [Example 6, (1R,3S)-3-((((1R,3aS,5aR,5bR,7aR,9S,11aR,11bR,13aR,13bR)-3a-(((S)-2-(1,1-dioxidothiomorpholino)-3-methylbutyl)amino)-5a,5b,8,8,11a-pentamethyl-1-(1-methylcyclopropyl)icosahydro-1H-cyclopentachrysen-9-yl)oxy)carbonyl)-2,2-dimethylcyclobutane-1-carboxylic acid], the IC50 in assay [1] is 10 to 50 nM; in assay [2] it was 1 to 50 nM; in assay [3], under 10 nM.

Regarding `C=C(C)[C@@H]1CC[C@]2(NC[C@H]([C@@H](C)O)N3CCS(=O)(=O)CC3)CC[C@]3(C)[C@H](CC[C@@H]4[C@@]5(C)CC[C@H](OC(=O)CC(C)(C)C(=O)O)C(C)(C)[C@@H]5CC[C@]43C)[C@@H]12` [Example 20, 4-(((1R,3aS,5aR,5bR,7aR,9S,11aR,11bR,13aR,13bR)-3a-(((2R,3R)-2-(1,1-dioxidothiomorpholino)-3-hydroxybutyl)amino)-5a,5b,8,8,11a-pentamethyl-1-(prop-1-en-2-yl)icosahydro-1H-cyclopentachrysen-9-yl)oxy)-2,2-dimethyl-4-oxobutanoic acid], the IC50 was under 10 nM in assay [1], 1 to 50 nM in assay [2] and under 10 nM in assay [3].

Consider `CC1([C@@H]2CC[C@]3(NC[C@@H](CO)N4CCS(=O)(=O)CC4)CC[C@]4(C)[C@H](CC[C@@H]5[C@@]6(C)CC[C@H](OC(=O)[C@H]7C[C@@H](C(=O)O)C7(C)C)C(C)(C)[C@@H]6CC[C@]54C)[C@@H]23)CC1` [Example 8, (1R,3S)-3-((((1R,3aS,5aR,5bR,7aR,9S,11aR,11bR,13aR,13bR)-3a-(((S)-2-(1,1-dioxidothiomorpholino)-3-hydroxypropyl)amino)-5a,5b,8,8,11a-pentamethyl-1-(1-methylcyclopropyl)icosahydro-1H-cyclopenta[a]chrysen-9-yl)oxy)carbonyl)-2,2-dimethylcyclobutane-1-carboxylic acid], for which the values for the IC50 in assay [1], in assay [2] and in assay [3] were under 10 nM, 1 to 50 nM and under 10 nM, respectively.

The IC50 is the concentration needed to halve the response being measured.
